Assay results published in US11571454B2, “Anticancer peptides that synergistically enhance chemotherapeutic potency” (The Penn State Research Foundation, priority 2017, dated 2023).

Tests used:
[1] = tested on: NCI/ADR-RES cells; assay: Combinatorial (checkerboard) cytotoxicity, NCI/ADR-RES; type: cell-based, human; details: for Combined FIC Score, NCl/ADR-RES: chemotherapeutic in combination with MAD1, FIC <1 additive, <0.5 synergistic; for synergy with MAD1, NCI/ADR-RES: multidrug resistant line, combination with MAD1; for drug potency (IC50) in NCI/ADR-RES on co-treatment with MAD1: in the presence of 20 μM MAD1, compared with OVCAR-3
Excerpt: (§1) For combinatorial cytotoxicity experiments, 96 well plates were set up in a checkerboard fashion such that peptide decreased in 1:10 concentration dilutions in one direction and chemotherapeutic decreased in 1:10 concentration dilutions in the orthogonal direction. 2×treatments were combined prior to cell administration for a final 1×concentration to prevent individual treatment effects.

[2] = tested on: human lung epithelium (NL20); details: 48 h
[3] = tested on: P. aeruginosa; details: 24 hours, Gram Negative
[4] = tested on: polymicrobial panel (six bacterial lines); assay: Antimicrobial activity against polymicrobial panel; type: cell-based; details: six bacterial lines
[5] = tested on: human umbilical vein endothelial cells (HUVEC); details: 48 h
[6] = tested on: T24 (urinary bladder transitional cell carcinoma) cells; details: 48 h
[7] = tested on: A549 (lung carcinoma) cells; assay: MTT cytotoxicity assay, A549; type: cell-based, human; details: for IC50: 48 hours treatment, MTT, read-out: Cancerous (IC50, μM) A549
Description: (§2) All cells were cultured using standard culture conditions at 37° C., 5% CO2, and 95% humidity. A549 (CCL-185), OVCAR-3 (HTB-161), T24 (HTB-4), and NCI/ADR-RES were cultured in RPMI-1640 supplemented with 10% v/v fetal bovine serum (FBS), 2 mM L-glutamine (L-Gln), 10,000 units penicillin/mL, 10 mg/mL streptomycin, and 25 μg/mL amphotericin B. HUVEC (PCS-100-010) cells were cultured in Vascular Cell Basal Media (PCS-100-030) supplemented with an Endothelial Cell Growth Kit-VEGF (PCS-100-041) and 10 μg/mL gentamycin in culture flasks coated with 0.1% gelatin by incubating at 37° C. for 15 min. NL20 (CRL-2503) cells were cultured in Ham's F12 supplemented with 1.5 g/L sodium bicarbonate, 2.7 g/L glucose, 2.0 mM L-glutamine, 0.1 mM nonessential amino acids, 0.005 mg/ml insulin, 10 ng/ml epidermal growth factor, 0.001 mg/ml transferrin, 500 ng/ml hydrocortisone and 4% fetal bovine serum, as advised by American Type Culture Collection (ATCC).
(§3) Viability was calculated by comparing to an untreated control.
(§4) All experiments were performed with n>6.
(§5) Cell viability experiments were completed n>6 in two independent experiments and analyzed using GraphPad Prism 8 to fit curves and calculate IC50 values using inhibitor vs. normalized response non-linear regression model. IC50 values are reported as mean values±standard deviation. […] Pore size frequency distribution was completed by ImageJ FIJI on 4 independent cells and n=30 pores from SEM images. UV-Vis OD600 and CD spectra are means of 5 and 3 replicates, respectively and reported as mean±standard deviation. Individual UV-Vis and CD spectra, as well as fluorescent confocal and TEM micrographs, shown are representative plots from three individual experiments. CD data is with a variance in ellipticity of 0.2 millidegrees at each wavelength. Relative fluorescence data calculated from fluorescent confocal images represents the average of 10 independent measurements±standard deviation. For spheroid volume analysis, a Kruskal-Wallis test and Dunn's multiple comparisons test was performed using GraphPad Prism 8.

[8] = tested on: OVCAR-3 ovarian carcinoma cells; details: for IC50: 48 h
[9] = tested on: E. coli; details: 24 hours, Gram Negative
[10] = tested on: MS S. aureus; details: 24 hours, Gram Positive
[11] = tested on: NCI/ADR-RES (drug-resistant ovarian carcinoma) cells; assay: MTT cytotoxicity assay, NCI/ADR-RES; type: cell-based, human; details: for IC50: 48 hours treatment, MTT, read-out: Cancerous (IC50, μM) NCl/ADR-RES
Description: as §2, §3, §4, §5

[12] = tested on: panel of human cancer cell lines (A549, OVCAR-3, NCI/ADR-RES, T24)
[13] = tested on: MR S. aureus; details: 24 hours, Gram Positive
[14] = tested on: M. tuberculosis; details: 24 hours, Mycobacteria
[15] = tested on: B. subtilis (168); details: 24 hours, Gram Positive
[16] = tested on: OVCAR-3 cells; assay: Combinatorial (checkerboard) cytotoxicity, OVCAR-3; type: cell-based, human; details: for Combined FIC Score, OVCAR-3: chemotherapeutic in combination with MAD1, FIC <1 additive, <0.5 synergistic; for synergy with MAD1, OVCAR-3: drug-refractory line, combination with MAD1
Excerpt: as §1

[17] = Liposome disruption (OD600), normal membrane model
Description: (§6) Liposomes were prepared by extrusion techniques according to previous methods. Briefly, all liposomes were prepared in 2×concentration (5 mM). Healthy and cancer liposomal mimicking membranes were prepared with 72:23:[…] phosphatidylcholine (POPC):phosphatidylethanolamine (DOPE):phosphatidylserine (POPS) lipids, respectively. The lipids dissolved in chloroform were mixed in proper molar proportions before being evaporated under a stream of argon. The lipid film was then dried completely by lyophilization overnight. […] The extruded liposomes were then dialyzed in 3500 MWCO dialysis cassettes against water. Parallel optical density experiments were conducted measuring the absorbance at 600 nm (OD600) to track the kinetics and specificity of membrane disruption. Measurements were taken every 30 seconds for the first 10 min., followed by measurements every minute until 15 min.

[18] = Liposome disruption (OD600), cancer membrane model; details: OD600 and visual flocculates
Description: as §6

[19] = tested on: T24 (urinary bladder transitional cell carcinoma) cells; assay: MTT cytotoxicity assay, T24; details: IC50-HUVEC/IC50-T24
[20] = tested on: non-cancerous cell lines HUVEC and NL20; assay: MTT cytotoxicity, non-cancerous control cell lines; type: cell-based, human
Description: as §2, §3, §4

[21] = tested on: patient-derived tumor cell spheroids (EOC15, 17, 19); assay: Ex vivo 3D tumor spheroid culture; type: cell-based, human
Description: EOC patient-derived cells were cultured in 1:1 MCDB-105: M199 supplemented with 10% FBS and 1% penicillin-streptomycin. EOC patient-derived cells were provided by Dr. Katherine M. Aird under an Institutional Review Board-approved protocol. EOC patient-derived cells were collected from patient ascites fluid after paracentesis procedures. Cells were routinely tested for mycoplasma as previously described. […] Spheroid length and width was calculated using ImageJ. Spheroid volume was calculated using the following equation […] Statistical Methods […] IC50 values are reported as mean values±standard deviation. […] Pore size frequency distribution was completed by ImageJ FIJI on 4 independent cells and n=30 pores from SEM images. […] Individual UV-Vis and CD spectra, as well as fluorescent confocal and TEM micrographs, shown are representative plots from three individual experiments. CD data is with a variance in ellipticity of 0.2 millidegrees at each wavelength. Relative fluorescence data calculated from fluorescent confocal images represents the average of 10 independent measurements±standard deviation. For spheroid volume analysis, a Kruskal-Wallis test and Dunn's multiple comparisons test was performed using GraphPad Prism 8.

Compound	Combined FIC Score, NCl/ADR-RES [1]	synergy with MAD1, NCI/ADR-RES [1]	IC50 [2] [µM]	MIC (μM) P. aeruginosa [3] [µM]	antimicrobial activity against polymicrobial panel [4]	IC50 [5] [µM]	IC50 [6] [µM]	IC50 [7] [µM]	IC50 [8] [µM]	MIC (μM) E. coli [9] [µM]	MIC (μM) MS S. aureus [10] [µM]	IC50 [11] [µM]	MIC (μM) MR S. aureus [13] [µM]	MIC (μM) M. tuberculosis [14] [µM]	MIC (μM) B. subtilis (168) [15] [µM]	Combined FIC Score, OVCAR-3 [16]	synergy with MAD1, OVCAR-3 [16]	drug potency (IC50) in NCI/ADR-RES on co-treatment with MAD1 [1]	further results
CC(=O)O[C@H]1C(=O)[C@@]2(C)[C@H]([C@H](OC(=O)c3ccccc3)[C@]3(O)C[C@H](OC(=O)[C@H](O)[C@@H](NC(=O)c4ccccc4)c4ccccc4)C(C)=C1C3(C)C)[C@]1(OC(C)=O)CO[C@@H]1C[C@@H]2O [Ptx, Paclitaxel]	0.27	potently synergizes	–	–	–	–	–	–	–	–	–	–	–	–	–	–	–	–	–
H-RWGKWFKKNSHLS-NH2 [DAP2]	–	–	> 100	>80	inactive	> 100	> 100	> 100	> 100	>80	>80	> 100	>80	>80	>80	–	–	–	Cancerous (IC50, μM) OVCAR-3 ([8]; 48 hours treatment, MTT): did not achieve an IC50; activity towards all four tumor cell lines tested ([12]; result in words): inactive
COc1cccc2c1C(=O)c1c(O)c3c(c(O)c1C2=O)C[C@@](O)(C(=O)CO)C[C@@H]3O[C@H]1C[C@H](N)[C@H](O)[C@H](C)O1 [Dox, Doxorubicin]	0.37	potently synergizes	–	–	–	–	–	–	–	–	–	–	–	–	–	0.33	potently synergizes	restored the potency	–
H-LWKRWVGVWRKWL-NH2 [DAP1]	–	–	19	20	bactericidal activity	19.5	15.3	11.9	8.6	10	7	14	5	20	<0.6	–	–	–	disruption/interaction with normal (healthy) membrane liposomes [17]: little interaction affinity; disruption/lysis of cancer membrane liposomes [18]: does not completely lyse; Therapeutic Index A549 ([7]; IC50-HUVEC/IC50-A549): 1.6; Therapeutic Index OVCAR-3 ([8]; IC50-HUVEC/IC50-OVCAR-3): 2.3; Therapeutic Index T24 [19]: 1.3; toxicity towards non-cancerous control cell lines [20]: nearly equal toxicity; Therapeutic Index NCl/ADR-RES ([11]; IC50-HUVEC/IC50-NCI/ADR-RES): 1.4; IC50 [12]: 8.6 to 15.3 µM; therapeutic indices across cell lines ([12]; relative to HUVEC controls): ≤ 2.3
N.N.[Cl][Pt][Cl] [Cis, Cisplatin]	0.27	potently synergizes	–	–	–	–	–	–	–	–	–	–	–	–	–	0.31	potently synergizes	restored the potency	spheroid size, combination ([21]; 2 μM cisplatin combined with 4 μM MAD1, 48 hours): potent and synergistic anticancer effects; spheroid size, single agent ([21]; 2 μM cisplatin or 4 μM MAD1 alone, 48 hours): minimal reduction in size
